This is an account of results in ChEMBL document CHEMBL1687737, “Potent activity of a nucleoside reverse transcriptase inhibitor, 4'-ethynyl-2-fluoro-2'-deoxyadenosine, against human immunodeficiency virus type 1 infection in a model using human peripheral blood mononuclear cell-transplanted NOD/SCID Janus kinase 3 knockout mice” (Antimicrob Agents Chemother, 2009).

Activity calls are given as the source filed them. The calls are words filed in the database; no cut-off is given here.

The subject of data set [1] is Human immunodeficiency virus 1. Kind of data set: Antiviral activity against HIV1 JR-FL infected in human PBMC transplanted NOD/SCID/Janus kinase 3 knockout mouse assessed as decrease of p24 expressing human CD4+ cells in peritoneal cavity cells at 0.5 mg/kg, ip bid for 15 days by flow cytometry. Format: functional, organism-based. More on the design: dose 0.5 mg/kg.

Data set [2] relates to Mus musculus. Description: Toxicity in BALB/c mouse assessed as change in body weight at 50 mg/kg, ip bid for 14 days. The format is organism-based. More on the design: dose 50 mg/kg, route intraperitoneal. To be noted: in vivo, 336 h.
Data set [3] in a line: Drug level in BALB/c mouse blood at 20 mg/kg, ip. Format: ADME, organism-based. Set-up: dose 20 mg/kg, route intraperitoneal. The settings on record: read-out: Drug uptake.
Data set [4] can be described thus: Tmax in BALB/c mouse at 20 mg/kg, ip. Format: ADME, organism-based. More on the design: dose 20 mg/kg, route intraperitoneal. To be noted: in vivo.
Data set [5] concerns Mus musculus. Description: Toxicity in BALB/c mouse assessed as ruffled fur at 50 mg/kg, ip bid for 14 days. The settings on record: in vivo, 336 h. The format is organism-based. Set-up: dose 50 mg/kg, route intraperitoneal.
Data set [6] deals with Mus musculus. Kind of data set: Toxicity in BALB/c mouse assessed as acute whole-body effect at 5 mg/kg, ip bid for 14 days. The format is organism-based. More on the design: dose 5 mg/kg, route intraperitoneal. The settings on record: in vivo, 336 h.
Data set [7] concerns Human immunodeficiency virus 1. Description: Antiviral activity against HIV1 JR-FL infected in human PBMC transplanted NOD/SCID/Janus kinase 3 knockout mouse assessed as decrease of viral p24 antigen level in plasma at 0.5 mg/kg, ip bid for 15 days by ELISA. Format: functional. The settings on record: route intraperitoneal. Background: An ELISA detects its analyte on a solid surface through an enzyme-linked reagent.

Data set [8] deals with Human immunodeficiency virus 1. Description: Antiviral activity against HIV1 JR-FL infected in human PBMC transplanted NOD/SCID/Janus kinase 3 knockout mouse assessed as decrease of p24 expressing human CD3+ cells in spleen cells at 0.5 mg/kg, ip bid for 15 days by flow cytometry. Format: functional. More on the design: scale not given: the % may be the effect or the level left. The settings on record: route intraperitoneal.

Data set [9] concerns Mus musculus. Kind of data set: Toxicity in HIV1 JR-FL infected human PBMC transplanted NOD/SCID/Janus kinase 3 knockout mouse assessed as adverse effect at 0.5 mg/kg, ip bid for 15 days. Format: organism-based. Set-up: dose 0.5 mg/kg, route intraperitoneal. The settings on record: in vivo, 360 h.
For data set [10], the system named is Human immunodeficiency virus 1. Kind of data set: Antiviral activity against HIV1 JR-FL infected in human PBMC transplanted NOD/SCID/Janus kinase 3 knockout mouse assessed as increase of CD4/CD8 ratio in PBMC at 0.5 mg/kg, ip bid for 15 days by flow cytometry. Format: functional. To be noted: route intraperitoneal. (Flow cytometry measures light scatter and fluorescence of single cells or particles in a stream.)

In data set [11] the test system is Mus musculus. Kind of data set: Toxicity in BALB/c mouse assessed as subacute whole-body effect at 50 mg/kg, ip bid for 14 days. Format: organism-based. More on the design: dose 50 mg/kg, route intraperitoneal. The settings on record: in vivo, 336 h.
In data set [12] the test system is Mus musculus. Kind of data set: Toxicity in BALB/c mouse assessed as acute whole-body effect at 50 mg/kg, ip bid for 14 days. Format: organism-based. Set-up: dose 50 mg/kg, route intraperitoneal. The settings on record: in vivo, 336 h.
Data set [13] deals with Human immunodeficiency virus 1. Kind of data set: Antiviral activity against HIV1 JR-FL infected in human PBMC transplanted NOD/SCID/Janus kinase 3 knockout mouse assessed as decrease of viremia in plasma at 0.5 mg/kg, ip bid for 15 days by ELISA. Set-up: dose 0.5 mg/kg. Format: functional, organism-based.
The test system of data set [14] is Mus musculus. Description: Toxicity in BALB/c mouse assessed as change in body weight at 5 mg/kg, ip bid for 14 days. Format: organism-based. More on the design: dose 5 mg/kg, route intraperitoneal. The settings on record: in vivo, 336 h.
Data set [15] has as its system Mus musculus. Description: Toxicity in BALB/c mouse assessed as subacute whole-body effect at 5 mg/kg, ip bid for 14 days. Format: organism-based. Set-up: dose 5 mg/kg, route intraperitoneal. The settings on record: in vivo, 336 h.
Data set [16] concerns Human immunodeficiency virus 1. Kind of data set: Antiviral activity against HIV1 JR-FL infected in human PBMC transplanted NOD/SCID/Janus kinase 3 knockout mouse assessed as increase of CD4/CD8 ratio in spleen at 0.5 mg/kg, ip bid for 15 days by flow cytometry. Format: functional, organism-based. More on the design: dose 0.5 mg/kg.
Data set [17] deals with Human immunodeficiency virus 1. Description: Antiviral activity against HIV1 JR-FL infected in human PBMC transplanted NOD/SCID/Janus kinase 3 knockout mouse assessed as decrease of p24 expressing human CD4+ cells in PBMC at 0.5 mg/kg, ip bid for 15 days by flow cytometry. Format: functional, organism-based. More on the design: dose 0.5 mg/kg.
Data set [18] concerns Human immunodeficiency virus 1. Description: Antiviral activity against HIV1 JR-FL infected in human PBMC transplanted NOD/SCID/Janus kinase 3 knockout mouse assessed as increase of CD4/CD8 ratio in peritoneal cavity at 0.5 mg/kg, ip bid for 15 days by flow cytometry. Set-up: dose 0.5 mg/kg. Format: functional, organism-based.

A word on the Tmax: it is the time at which the peak concentration occurs.

For `C#C[C@]1(CO)O[C@@H](n2cnc3c(N)nc(F)nc32)C[C@@H]1O` [ISLATRAVIR], the result in data set [1], in data set [13], in data set [16], in data set [17] and in data set [18] was Active. Moreover, the Activity entry was “Non-toxic” in [2]; “Non-toxic” in data set [5]; “Non-toxic” in data set [6]; 2.1 ×10² pg/ml in data set [7]; 0.11% in data set [8]; “Non-toxic” in data set [9]. In addition, the Activity entry in data set [11], in [12], in data set [14] and in data set [15] was “Non-toxic” each time. Further, the AUC in [3] came to 4990 ng·h/mL. Also, the Tmax in data set [4] is 10 min. The Ratio in data set [10] worked out at 0.65.
